In assay [1] the target is His-tagged KRAS G12D protein (Homo sapiens (Human), UniProt P01116, G12D). Put plainly: KRAS G12D TR-FRET Assay. It is filed as binding. As to conditions: read-out: KRAS G12D Binding IC50. A digest of the protocol:
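Each incubation ran at room temperature: enzyme with compound for 30 minutes, peptide for one hour, and detection reagents (0.4 nM europium anti-6×His, 5 nM streptavidin-d2) for one hour more. Protein and peptide stocks were each diluted to 20 nM before addition.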
(In general: TR-FRET usually uses a lanthanide donor and a delayed reading to cut background.)

Another assay relates to AsPC-1 cells. Put plainly: AsPC-1 CTG Assay (CellTiter-Glo cell viability). It is filed as cell-based, human. Conditions: AsPC-1, 72 h, first value of the cell, read-out: G12D/C/V Cell Proliferation CTG (72 h) AsPC-1. A digest of the protocol: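 IC50 values derive from 4-parameter logistic fits of CellTiter-Glo luminescence, expressed relative to DMSO. Compound dilution series were applied to overnight-seeded AsPC-1 or SW620 cells (RPMI 1640, 10% FBS) for 72 h at 37 °C, 5% CO2.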
A general note: Cellular ATP, detected with luciferase, serves as a proxy for viable cell number.

Assay [2] deals with GDP-bound KRAS protein (aa 1-169), containing both G12D and C118A amino acid substitutions (Homo sapiens (Human), UniProt P01116, C118A/G12D). Put plainly: KRAS G12D Coupled Nucleotide Exchange Assay. The class given is biochemical. Conditions: read-out: KRAS G12D Coupled Exchange IC50.
Sequence of GDP-bound KRAS protein (aa 1-169), containing both G12D and C118A amino acid substitutions (P01116 other isoform, or with tags, fused parts or gaps G12D/C118A): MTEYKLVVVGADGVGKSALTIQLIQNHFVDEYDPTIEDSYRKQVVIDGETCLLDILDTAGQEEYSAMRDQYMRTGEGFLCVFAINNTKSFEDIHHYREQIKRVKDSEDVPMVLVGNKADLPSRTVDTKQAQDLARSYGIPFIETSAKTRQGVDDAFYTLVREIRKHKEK
For assay [3], the system named is Phosphorylation of ERK1/2 in AsPC-1 cells. Nature of the assay: Phospho-ERK1/2 MSD Assay. The class given is cell-based, human. As to conditions: read-out: 2 h p-ERK (AsPC-1 cells), IC50. The essentials:
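Read-out: MSD electrochemiluminescent detection of phosphorylated ERK1/2 in whole-cell lysates, fitted to a 4-parameter logistic curve for IC50. Prior to lysis, AsPC-1 cells (25,000 per well) received a 2 h compound dose-response at 37 °C.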

The values below come from patent US20240294551A1 (AMGEN INC., priority 2022, published 2024).

The structures appear in SMILES notation. Read-outs that look alike come from different tables or passages of the source.

Sequence of His-tagged KRAS G12D protein (P01116 other isoform, or with tags, fused parts or gaps G12D): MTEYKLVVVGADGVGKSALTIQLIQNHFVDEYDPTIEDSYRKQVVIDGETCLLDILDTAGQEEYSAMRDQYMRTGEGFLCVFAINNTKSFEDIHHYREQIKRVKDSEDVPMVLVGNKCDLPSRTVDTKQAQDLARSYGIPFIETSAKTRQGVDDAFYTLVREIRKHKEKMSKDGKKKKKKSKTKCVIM

For the molecule `Cc1cc2[nH]ncc2c2c1CCCCC(=O)N[C@H]1CN(C[C@H]3C[C@H]31)c1nc(OC[C@@]34CCCN3C[C@H](F)C4)nc3c(F)c-2ncc13` [Example 171, (26R,27R,29S)-32-fluoro-4-(((2R,7aS)-2-fluorotetrahydro-1H-pyrrolo[1,2-a]pyrrol-7a(5H)-yl)methoxy)-18-methyl-1,3,5,9,14,15,25-heptaazaheptacyclo[24.4.1.1~6,10~.0~2,7~.0~11,19~.0~12,16~.0~27,29~]dotriaconta-2,4,6,8,10(32),11,13,16,18-nonaen-24-one], the IC50 in assay [1] came to 6 nM; in the assay on AsPC-1 cells (Homo sapiens, ASPC1, 72 h), 1090 nM; in assay [2] it was 4 nM; in assay [3] (Homo sapiens, ASPC1, 2 h), 106 nM.
On the same counts, the results for `O=C1N[C@H]2CN(C[C@H]3C[C@H]32)c2nc(OC[C@@]34CCCN3C[C@H](F)C4)nc3c(F)c(ncc23)-c2c(c(Cl)cc3[nH]ncc23)CCC[C@@H]1F` [Example 175, (23S,26R,27R,29S)-18-chloro-23,32-difluoro-4-(((2R,7aS)-2-fluorotetrahydro-1H-pyrrolo[1,2-a]pyrrol-7a(5H)-yl)methoxy)-1,3,5,9,14,15,25-heptaazaheptacyclo[24.4.1.1~6,10~.0~2,7~.0~11,19~.0~12,16~.0~27,29~]dotriaconta-2,4,6,8,10(32),11,13,16,18-nonaen-24-one] are 5 nM, 123 nM, 4 nM and 27.7 nM.
Consider `O=C1OCCCc2c(Cl)cccc2-c2ncc3c(nc(OC[C@@]45CCCN4C[C@H](F)C5)nc3c2F)N2CCOC[C@H](C2)O1` [Example 186, (23S)-15-chloro-29-fluoro-4-(((2R,7aS)-2-fluorotetrahydro-1H-pyrrolo[1,2-a]pyrrol-7a(5H)-yl)methoxy)-20,22,25-trioxa-1,3,5,9-tetraazapentacyclo[21.4.1.1~6,10~.0~2,7~.0~11,16~]nonacosa-2,4,6,8,10(29),11,13,15-octaen-21-one], for which the IC50 was 12 nM in assay [1], 1950 nM in the assay on AsPC-1 cells, 9 nM in assay [2] and 200 nM in assay [3] (2 h).
Consider `Cc1cc2[nH]ncc2c2c1CCOC(=O)O[C@H]1C[C@]3(CCCN(C3)c3nc(OC[C@@]45CCCN4C[C@H](F)C5)nc4c(F)c-2ncc34)C1` [Example 193, (1R,3S)-32-fluoro-24-(((2R,7aS)-2-fluorotetrahydro-1H-pyrrolo[1,2-a]pyrrol-7a(5H)-yl)methoxy)-10-methyl-4,6-dioxa-13,14,19,23,25,27-hexaazaheptacyclo[25.3.1.1~1,3~.1~18,22~.0~9,17~.0~12,16~.0~21,26~]tritriaconta-9,11,14,16,18(32),19,21,23,25-nonaen-5-one], for which the IC50 in assay [1] worked out at 49 nM; in the assay with AsPC-1 cells (Homo sapiens, ASPC1, 72 h) it was 60 nM; in assay [2], 24 nM; in assay [3] (Homo sapiens, ASPC1, 2 h), 23.9 nM.
For `Cc1cc2[nH]ncc2c2c1CCCOC(=O)O[C@@H]1CCCCN(C1)c1nc(OC[C@@H]3CCCN3C)nc3c(F)c-2ncc13` [Example 206, (26R)-32-fluoro-18-methyl-4-(((2S)-1-methyl-2-pyrrolidinyl)methoxy)-23,25-dioxa-1,3,5,9,14,15-hexaazahexacyclo[24.4.1.1~6,10~.0~2,7~.0~11,19~.0~12,16~]dotriaconta-2,4,6,8,10(32),11,13,16,18-nonaen-24-one], the IC50 in assay [1] was found to be 14 nM; with AsPC-1 cells (Homo sapiens, ASPC1, 72 h), 2230 nM; in assay [2], 9 nM; in assay [3] (Homo sapiens, ASPC1, 2 h) it was 211 nM.
As for `CC(=O)n1ncc2c3c(c(Cl)cc21)CCCOC(=O)O[C@@H]1COCCN(C1)c1nc(OC[C@@]24CCCN2C[C@H](F)C4)nc2c(F)c-3ncc12` [Example 213, (26S)-15-Acetyl-18-chloro-32-fluoro-4-(((2R,7aS)-2-fluorotetrahydro-1H-pyrrolo[1,2-a]pyrrol-7a(5H)-yl)methoxy)-23,25,28-trioxa-1,3,5,9,14,15-hexaazahexacyclo[24.4.1.1˜6,10˜.0˜2,7˜.0˜11,19˜.0˜12,16˜]dotriaconta-2,4,6(32),7,9,11,13,16,18-nonaen-24-one], the IC50 was determined as 46 nM in assay [1]; 5 nM in the assay with AsPC-1 cells (Homo sapiens, ASPC1, 72 h); 15 nM in assay [2]; 4.9 nM in assay [3] (Homo sapiens, ASPC1, 2 h).
In the same order, the values of `Fc1c2ncc3c(nc(OC[C@@]45CCCN4C[C@H](F)C5)nc13)N1CC(COCCCCc3c(Cl)cc4[nH]ncc4c3-2)CC2(CC2)C1` (stereo partly shown) [Example 228] are 12 nM, 487 nM, 8 nM and 181 nM.
In the same order, the values of `Cc1cc2[nH]ncc2c2c1CCC[C@@H](O)CC[C@@H]1CCCN(C1)c1nc(OC[C@@]34CCCN3C[C@H](F)C4)nc3c(F)c-2ncc13` [Example 237, (14R,17S)-30-Fluoro-24-(((2R,7aS)-2-fluorotetrahydro-1H-pyrrolo[1,2-a]pyrrol-7a(5H)-yl)methoxy)-9-methyl-5,6,21,23,25,29-hexaazahexacyclo[24.3.1.1˜17,21˜.0˜2,10˜.0˜3,7˜.0˜22,27˜]hentriaconta-1(30),2,4,7,9,22,24,26,28-nonaen-14-ol] are 19 nM, 5000 nM, 10 nM and 279 nM.
In the same order, the values of `Cc1cc2[nH]ncc2c2c1CCC[C@H](O)CC[C@H]1CCCN(C1)c1nc(OC[C@@]34CCCN3C[C@H](F)C4)nc3c(F)c-2ncc13` [Example 238, (14S,17R)-30-fluoro-24-(((2R,7aS)-2-fluorotetrahydro-1H-pyrrolo[1,2-a]pyrrol-7a(5H)-yl)methoxy)-9-methyl-5,6,21,23,25,29-hexaazahexacyclo[24.3.1.1˜17,21˜.0˜2,10˜.0˜3,7˜.0˜22,27˜]hentriaconta-1(30),2,4,7,9,22,24,26,28-nonaen-14-ol] are 45 nM, 5000 nM, 24 nM and 861 nM.
`Fc1cc2[nH]ncc2c2c1CCCCOC[C@@H]1CCCCN(C1)c1nc(OC[C@@]34CCCN3C[C@H](F)C4)nc3c(F)c-2ncc13` [Example 239, (26R)-18,32-difluoro-4-(((2R,7aS)-2-fluorotetrahydro-1H-pyrrolo[1,2-a]pyrrol-7a(5H)-yl)methoxy)-24-oxa-1,3,5,9,14,15-hexaazahexacyclo[24.4.1.1~6, 10~.0~2,7~.0~11,19~.0~12,16~]dotriaconta-2,4,6(32),7,9,11,13,16,18-nonaene]: the IC50 turned out to be 6 nM in assay [1]; 527 nM in the assay on AsPC-1 cells (Homo sapiens, ASPC1, 72 h); 5 nM in assay [2]; 82.9 nM in assay [3] (Homo sapiens, ASPC1, 2 h).
In the same order, the values of `Fc1c2ncc3c(nc(OC[C@@]45CCCN4C[C@H](F)C5)nc13)N1CCC[C@H](C1)c1noc(n1)CCCc1c(Cl)cc3[nH]ncc3c1-2` [Example 247, (18R)-9-chloro-31-fluoro-25-(((2R,7aS)-2-fluorotetrahydro-1H-pyrrolo[1,2-a]pyrrol-7a(5H)-yl)methoxy)-15-oxa-5,6,16,22,24,26,30,33-octaazaheptacyclo[25.3.1.1~14,17~.1~18,22~.0~2,10~.0~3,7~.0~23,28~]tritriaconta-1(31),2,4,7,9,14(33),16,23,25,27,29-undecaene] are 9 nM, 446 nM, 5 nM and 31.2 nM.
Consider `Cc1cc2[nH]ncc2c2c1C[C@@H](C)CCOC[C@@H]1CCCN(C1)c1nc(OC[C@@]34CCCN3C[C@H](F)C4)nc3c(F)c-2ncc13` [Example 250, (12R,17R)-30-fluoro-24-(((2R,7aS)-2-fluorotetrahydro-1H-pyrrolo[1,2-a]pyrrol-7a(5H)-yl)methoxy)-9,12-dimethyl-15-oxa-5,6,21,23,25,29-hexaazahexacyclo[24.3.1.1~17,21~.0~2,10~.0~3,7~.0~22,27~]hentriaconta-1(30),2,4,7,9,22,24,26,28-nonaene], for which the IC50 in assay [1] came out at 13 nM; with AsPC-1 cells (Homo sapiens, ASPC1, 72 h) it was 1060 nM; in assay [2], 6 nM; in assay [3] (Homo sapiens, ASPC1, 2 h), 128 nM.
In the same order, the values of `C[C@@H]1CCOC[C@H]2CN(CCO2)c2nc(OC[C@@]34CCCN3C[C@H](F)C4)nc3c(F)c(ncc23)-c2c(c(Cl)cc3[nH]ncc23)C1` [Example 253, (12S,17R)-9-chloro-30-fluoro-24-(((2R,7aS)-2-fluorotetrahydro-1H-pyrrolo[1,2-a]pyrrol-7a(5H)-yl)methoxy)-12-methyl-15,18-dioxa-5,6,21,23,25,29-hexaazahexacyclo[24.3.1.1~17,21~.0~2,10~.0~3,7~.0~22,27~]hentriaconta-1(30),2,4,7,9,22,24,26,28-nonaene] are 9 nM, 1200 nM, 6 nM and 67.8 nM.
